The values that follow come from US6812365B2, “Disulfone reagents and methods of preparing and using same” (The Arizona Disease Control Research Commission, priority 1999, dated 2004).

This test concerns the target T1, HIV integrase (HIV-IN) (Human immunodeficiency virus type 1 group M subtype B, UniProt P04585).
T1 construct: employs a purified recombinant integrase
As to the kind of experiment: in vitro HIV integrase inhibition assay (3′-processing and DNA strand transfer, purified recombinant integrase, 21-mer duplex oligonucleotide substrate). The test is classed as biochemical. Conditions: cell-free assay, 50% reduction in enzymatic activity; read-out: IC50 values against HIV-IN. The source says: Generally, a particular compound's HIV integrase inhibitory potency can be measured by observing the effects of that compound on the integrase enzyme's catalytic activity. HIV integrase has two catalytic functions: (1) 3′-processing, which removes a dinucleotide unit from the 3′-ends of viral DNA; and (2) DNA strand transfer, which […]. These two catalytic steps can be measured in an in vitro assay which employs a purified recombinant integrase and a 21-mer duplex oligonucleotide substrate corresponding to the U5 region of the HIV long terminal repeat (LTR) sequence. This assay permits simultaneous measurement of inhibition constants for both 3′-processing and DNA strand transfer. Inhibitory concentrations (i.e., IC50 values) are determined based on an observed 50% reduction in enzymatic activity in cell-free assays. (See e.g., Zhao H., Neamati N., Mazumder A., Sunder S., Pommier Y., ad Burke T. “Arylamide Inhibitors of HIV-1 Integrase” J. Med. Chem. 1997, 40, 1186-1194).
Compound 76 (an acetylated derivative of Compound 80), Compound 78 (a symmetrical, hydroxylated derivative of Compound 80), and Compound 82 (an acetylated and methylated derivative of Compound 80) have been prepared in accordance with the various aspects of the present invention and have been tested in accordance with the above-described known method of testing HIV-IN inhibition.
As usually defined, the IC50 is the point on the concentration scale where inhibition reaches its midpoint. `CC(=O)Oc1ccc(C=CS(=O)(=O)CS(=O)(=O)C=Cc2ccc(OC(C)=O)c(OC(C)=O)c2)cc1OC(C)=O` [Compound 76]: the IC50 lay in the range of 73 to 77 µM.

Regarding `COc1cc(C=CS(=O)(=O)CS(=O)(=O)C=Cc2cc(OC)c(OC(C)=O)c(OC(C)=O)c2)cc(OC(C)=O)c1OC(C)=O` [Compound 82], the IC50 worked out at 4 µM.

Regarding `O=S(=O)(C=Cc1ccc(O)c(O)c1)CS(=O)(=O)C=Cc1ccc(O)c(O)c1` [Compound 78], the IC50 was 4 to 6 µM.
